# Assay results: article PMC10897400, “Biochemical and structural characterization of an inositol pyrophosphate kinase from a giant virus” (The EMBO Journal, 2024)
# T1: TvIPK (full length) (Terrestrivirus sp., UniProt A0A3G4ZNY6)
# T1 construct: gene Terrestrivirus9_15; full-length, codon-optimized, E. coli BL21(DE3); N-terminal His6-MBP tag removed with TEV protease
# T1 sequence (A0A3G4ZNY6 1-265): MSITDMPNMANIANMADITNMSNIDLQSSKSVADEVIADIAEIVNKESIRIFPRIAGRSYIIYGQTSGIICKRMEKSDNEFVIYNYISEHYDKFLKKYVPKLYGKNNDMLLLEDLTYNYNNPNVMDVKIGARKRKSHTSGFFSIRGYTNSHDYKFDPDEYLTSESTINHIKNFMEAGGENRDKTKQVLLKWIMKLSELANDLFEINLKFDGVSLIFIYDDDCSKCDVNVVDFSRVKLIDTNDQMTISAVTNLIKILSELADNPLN
# T2: TvIPK^17-265 (Terrestrivirus sp., UniProt A0A3G4ZNY6)
# T2 construct: gene Terrestrivirus9_15; truncated crystallization construct, residues 17-265, E. coli; residues 17-47 not traced; one molecule per asymmetric unit
# T2 sequence (A0A3G4ZNY6 17-265): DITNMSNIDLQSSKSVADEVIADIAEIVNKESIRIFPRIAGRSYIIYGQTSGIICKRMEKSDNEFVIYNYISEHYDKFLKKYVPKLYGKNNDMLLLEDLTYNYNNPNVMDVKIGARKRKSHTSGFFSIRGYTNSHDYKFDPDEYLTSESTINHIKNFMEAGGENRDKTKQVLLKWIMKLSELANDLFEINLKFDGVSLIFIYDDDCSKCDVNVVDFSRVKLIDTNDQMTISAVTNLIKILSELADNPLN
# B1: TvIPK (full length) (Terrestrivirus sp.) (protein)
# chain: MSITDMPNMANIANMADITNMSNIDLQSSKSVADEVIADIAEIVNKESIRIFPRIAGRSYIIYGQTSGIICKRMEKSDNEFVIYNYISEHYDKFLKKYVPKLYGKNNDMLLLEDLTYNYNNPNVMDVKIGARKRKSHTSGFFSIRGYTNSHDYKFDPDEYLTSESTINHIKNFMEAGGENRDKTKQVLLKWIMKLSELANDLFEINLKFDGVSLIFIYDDDCSKCDVNVVDFSRVKLIDTNDQMTISAVTNLIKILSELADNPLN
# notes: full-length, codon-optimized, E. coli BL21(DE3); N-terminal His6-MBP tag removed with TEV protease
# Experiments:
# TvIPK (full length) = molecular target: T1, TvIPK (full length); test: X-ray crystal structure; type: binding; details: co-crystallised with 5 mM ADP, 10 mM MgCl2
# TvIPK^17-265 = molecular target: T2, TvIPK^17-265; test: X-ray crystal structure; type: binding; details: Cd2+ in place of Mg2+, soaked 5 mM, Pi present
# HPLC with [gamma-33P]ATP = substrate: Nc1ncnc2c1ncn2[C@@H]1O[C@H](COP(=O)(O)OP(=O)(O)OP(=O)(O)O)[C@@H](O)[C@H]1O; test: HPLC with [gamma-33P]ATP; type: biochemical, Terrestrivirus sp.; details: 2 mM myo-IP6, 3.5 mM MgCl2, pH 7.2, 25 °C, labelled compound
# [1] = substrate: O=P(O)(O)O[C@H]1[C@H](OP(=O)(O)O)[C@@H](OP(=O)(O)O)[C@H](OP(=O)(O)O)[C@@H](OP(=O)(O)O)[C@H]1OP(=O)(O)O; test: HPLC of [3H]IP6 pyrophosphorylation; type: biochemical, Terrestrivirus sp.; details: 1 mM ATP, 3.5 mM MgCl2, pH 7.2, 25 °C, creatine kinase / creatine phosphate ATP regeneration, labelled compound
molecule,measurement,setting,value
Nc1ncnc2c1ncn2[C@@H]1O[C@H](COP(=O)(O)OP(=O)(O)O)[C@@H](O)[C@H]1O [ADP],X-ray crystal structure,TvIPK (full length),in a binary complex of full-length TvIPK plus ADP
Nc1ncnc2c1ncn2[C@@H]1O[C@H](COP(=O)(O)OP(=O)(O)NP(=O)(O)O)[C@@H](O)[C@H]1O [AMP-PNP],X-ray crystal structure,TvIPK^17-265,We also derived crystal complexes with ATP and AMP-PNP
Nc1ncnc2c1ncn2[C@@H]1O[C@H](COP(=O)(O)OP(=O)(O)OP(=O)(O)O)[C@@H](O)[C@H]1O [ATP],X-ray crystal structure,TvIPK^17-265; two ATP conformations,"by making this substitution, we derived an ATP/TvIPK crystal complex"
B1,Km,HPLC with [gamma-33P]ATP,1600 µM
same,Km,[1],81 µM
